Assay results: US10582709B2, “Butyrolactones as herbicides” (FMC Corporation, priority 2015, dated 2020)

Assays:
Format in all cases: in vivo
[1] = tested on: corn (Zea mays); test: Test A postemergence, corn; details: visual rating after approx. 10 d, 0 to 100 scale, 0 no effect, 100 complete control
Excerpt: (§1) Seeds of plant species selected from barnyardgrass (Echinochloa crus-galli), crabgrass (large crabgrass, Digitaria sanguinalis), kochia (Kochia scoparia), ragweed (common ragweed, Ambrosia elatior), morningglory (Ipomoea spp.), velvetleaf (Abutilon theophrasti), ryegrass, Italian (Italian ryegrass, Lolium multiflorum), foxtail, giant (giant foxtail, Setaria faberii), wheat (Triticum aestivum), corn (Zea mays), and pigweed (Amaranthus retroflexus), were planted into a blend of loam soil and sand and treated preemergence with a directed soil spray using test chemicals formulated in a non-phytotoxic solvent mixture which included a surfactant. At the same time, plants selected from these crop and weed species and also blackgrass (Alopecurus myosuroides), and galium (catchweed bedstraw, Galium aparine), were planted in pots containing the same blend of loam soil and sand and treated with postemergence applications of test chemicals formulated in the same manner. Plants ranged in height from 2 to 10 cm and were in the one- to two-leaf stage for the postemergence treatment. Treated plants and untreated controls were maintained in a greenhouse for approximately 10 d, after which time all treated plants were compared to untreated controls and visually evaluated for injury. Plant response ratings, summarized in Table A, are based on a 0 to 100 scale where 0 is no effect and 100 is complete control. A dash (-) response means no test result.

[2] = tested on: sedge, umbrella (small-flower umbrella sedge, Cyperus difformis); test: Test B flooded paddy test, umbrella sedge; details: applied to paddy water at 2-leaf stage, 13 to 15 d, scale 0 no effect to 100 complete control
Method: (§2) Plant species in the flooded paddy test selected from rice (Oryza sativa), sedge, umbrella (small-flower umbrella sedge, Cyperus difformis), ducksalad (Heteranthera limosa), and barnyardgrass (Echinochloa crus-galli) were grown to the 2-leaf stage for testing. At time of treatment, test pots were flooded to 3 cm above the soil surface, treated by application of test compounds directly to the paddy water, and then maintained at that water depth for the duration of the test. Treated plants and controls were maintained in a greenhouse for 13 to 15 d, after which time all species were compared to controls and visually evaluated. Plant response ratings, summarized in Table B, are based on a scale of 0 to 100 where 0 is no effect and 100 is complete control. A dash (-) response means no test result.

[3] = tested on: barnyardgrass (Echinochloa crus-galli); test: Test B flooded paddy test, barnyardgrass; details: applied to paddy water at 2-leaf stage, 13 to 15 d, scale 0 no effect to 100 complete control
Method: as §2

[4] = tested on: ducksalad (Heteranthera limosa); test: Test B flooded paddy test, ducksalad; details: applied to paddy water at 2-leaf stage, 13 to 15 d, scale 0 no effect to 100 complete control
Method: as §2

[5] = tested on: wheat (Triticum aestivum); test: Test A postemergence, wheat; details: visual rating after approx. 10 d, 0 to 100 scale, 0 no effect, 100 complete control
Excerpt: as §1

[6] = tested on: blackgrass (Alopecurus myosuroides); test: Test A postemergence, blackgrass; details: visual rating after approx. 10 d, 0 to 100 scale, 0 no effect, 100 complete control
Excerpt: as §1

[7] = tested on: ragweed (common ragweed, Ambrosia elatior); test: Test A postemergence, ragweed; details: visual rating after approx. 10 d, 0 to 100 scale, 0 no effect, 100 complete control
Excerpt: as §1

[8] = tested on: pigweed (Amaranthus retroflexus); test: Test A postemergence, pigweed; details: visual rating after approx. 10 d, 0 to 100 scale, 0 no effect, 100 complete control
Excerpt: as §1

[9] = tested on: rice (Oryza sativa); test: Test B flooded paddy test, rice; details: applied to paddy water at 2-leaf stage, 13 to 15 d, scale 0 no effect to 100 complete control
Method: as §2

[10] = tested on: foxtail, giant (giant foxtail, Setaria faberii); test: Test A postemergence, giant foxtail; details: visual rating after approx. 10 d, 0 to 100 scale, 0 no effect, 100 complete control
Excerpt: as §1

[11] = tested on: ryegrass, Italian (Italian ryegrass, Lolium multiflorum); test: Test A postemergence, Italian ryegrass; details: visual rating after approx. 10 d, 0 to 100 scale, 0 no effect, 100 complete control
Excerpt: as §1

[12] = tested on: galium (catchweed bedstraw, Galium aparine); test: Test A postemergence, galium; details: visual rating after approx. 10 d, 0 to 100 scale, 0 no effect, 100 complete control
Excerpt: as §1

[13] = tested on: barnyardgrass (Echinochloa crus-galli); test: Test A postemergence, barnyardgrass; details: visual rating after approx. 10 d, 0 to 100 scale, 0 no effect, 100 complete control
Excerpt: as §1

[14] = tested on: kochia (Kochia scoparia); test: Test A postemergence, kochia; details: visual rating after approx. 10 d, 0 to 100 scale, 0 no effect, 100 complete control
Excerpt: as §1

[15] = tested on: ryegrass, Italian (Italian ryegrass, Lolium multiflorum); test: Test A preemergence, Italian ryegrass; details: visual rating after approx. 10 d, 0 to 100 scale, 0 no effect, 100 complete control
Excerpt: as §1

[16] = tested on: pigweed (Amaranthus retroflexus); test: Test A preemergence, pigweed; details: visual rating after approx. 10 d, 0 to 100 scale, 0 no effect, 100 complete control
Excerpt: as §1

[17] = tested on: kochia (Kochia scoparia); test: Test A preemergence, kochia; details: visual rating after approx. 10 d, 0 to 100 scale, 0 no effect, 100 complete control
Excerpt: as §1

[18] = tested on: ragweed (common ragweed, Ambrosia elatior); test: Test A preemergence, ragweed; details: visual rating after approx. 10 d, 0 to 100 scale, 0 no effect, 100 complete control
Excerpt: as §1

[19] = tested on: foxtail, giant (giant foxtail, Setaria faberii); test: Test A preemergence, giant foxtail; details: visual rating after approx. 10 d, 0 to 100 scale, 0 no effect, 100 complete control
Excerpt: as §1

[20] = tested on: barnyardgrass (Echinochloa crus-galli); test: Test A preemergence, barnyardgrass; details: visual rating after approx. 10 d, 0 to 100 scale, 0 no effect, 100 complete control
Excerpt: as §1

Compound	Plant response rating, Corn ([1]; 125 g ai/ha)	Plant response rating, Corn ([1]; 500 g ai/ha)	Plant response rating, Flood, Sedge, Umbrella ([2]; 250 g ai/ha)	Plant response rating, Flood, Barnyardgrass ([3]; 250 g ai/ha)	Plant response rating, Flood, Ducksalad ([4]; 250 g ai/ha)	Plant response rating, Wheat ([5]; 125 g ai/ha)	Plant response rating, Wheat ([5]; 500 g ai/ha)	Plant response rating, Blackgrass ([6]; 125 g ai/ha)	Plant response rating, Blackgrass ([6]; 500 g ai/ha)	Plant response rating, Ragweed ([7]; 125 g ai/ha)	Plant response rating, Ragweed ([7]; 500 g ai/ha)	Plant response rating, Pigweed ([8]; 125 g ai/ha)	Plant response rating, Pigweed ([8]; 500 g ai/ha)	Plant response rating, Flood, Rice ([9]; 250 g ai/ha)	Plant response rating, Foxtail, Giant ([10]; 125 g ai/ha)	Plant response rating, Foxtail, Giant ([10]; 500 g ai/ha)	Plant response rating, Ryegrass, Italian ([11]; 125 g ai/ha)	Plant response rating, Galium ([12]; 125 g ai/ha)	Plant response rating, Barnyardgrass ([13]; 125 g ai/ha)	Plant response rating, Kochia ([14]; 125 g ai/ha)	also measured
CC1(C(=O)Nc2ccccc2C(F)(F)F)C(=O)OCC1c1ccc(F)cc1 (racemic) [Compound 21]	0	0	0	90	90	0	0	0	30	0	40	0	0	30	0	0	0	0	0	0	Plant response rating, Ryegrass, Italian ([11]; 500 g ai/ha): 0; Plant response rating, Galium ([12]; 500 g ai/ha): 30; Plant response rating, Barnyardgrass ([13]; 500 g ai/ha): 30; Plant response rating, Kochia ([14]; 500 g ai/ha): 0
O=C(Nc1cccc(F)c1C(F)(F)F)C1C(=O)OCC1c1ccc(C(F)(F)F)cc1 (racemic) [Compound 10]	0	0	0	0	20	0	0	0	0	0	0	0	0	0	30	70	0	0	0	0	Plant response rating, Ryegrass, Italian ([15]; 125 g ai/ha): 0; Plant response rating, Ryegrass, Italian ([15]; 500 g ai/ha): 0; Plant response rating, Flood, Sedge, Umbrella ([2]; 1000 g ai/ha): 0; Plant response rating, Pigweed ([16]; 125 g ai/ha): 0; Plant response rating, Pigweed ([16]; 500 g ai/ha): 0; Plant response rating, Kochia ([17]; 125 g ai/ha): 0; Plant response rating, Kochia ([17]; 500 g ai/ha): 0; Plant response rating, Flood, Barnyardgrass ([3]; 1000 g ai/ha): 0; Plant response rating, Flood, Ducksalad ([4]; 1000 g ai/ha): 25; Plant response rating, Ragweed ([18]; 125 g ai/ha): 0; Plant response rating, Ragweed ([18]; 500 g ai/ha): 0; Plant response rating, Foxtail, Giant ([19]; 125 g ai/ha): 40; Plant response rating, Foxtail, Giant ([19]; 500 g ai/ha): 50; Plant response rating, Flood, Rice ([9]; 1000 g ai/ha): 0; Plant response rating, Barnyardgrass ([20]; 125 g ai/ha): 0; Plant response rating, Barnyardgrass ([20]; 500 g ai/ha): 0; Plant response rating, Ryegrass, Italian ([11]; 500 g ai/ha): 0; Plant response rating, Galium ([12]; 500 g ai/ha): 0; Plant response rating, Barnyardgrass ([13]; 500 g ai/ha): 0; Plant response rating, Kochia ([14]; 500 g ai/ha): 0
O=C(Nc1ccccc1C(F)(F)F)C1C(=O)OCC1c1cccc(C(F)(F)F)c1 (racemic) [Compound 14]	0	0	–	–	–	0	0	0	30	0	0	0	0	–	20	70	0	0	0	0	Plant response rating, Ryegrass, Italian ([15]; 125 g ai/ha): 0; Plant response rating, Ryegrass, Italian ([15]; 500 g ai/ha): 20; Plant response rating, Flood, Sedge, Umbrella ([2]; 500 g ai/ha): 0; Plant response rating, Pigweed ([16]; 125 g ai/ha): 0; Plant response rating, Pigweed ([16]; 500 g ai/ha): 0; Plant response rating, Kochia ([17]; 125 g ai/ha): 0; Plant response rating, Kochia ([17]; 500 g ai/ha): 20; Plant response rating, Flood, Barnyardgrass ([3]; 500 g ai/ha): 0; Plant response rating, Flood, Ducksalad ([4]; 500 g ai/ha): 0; Plant response rating, Ragweed ([18]; 125 g ai/ha): 0; Plant response rating, Ragweed ([18]; 500 g ai/ha): 0; Plant response rating, Foxtail, Giant ([19]; 125 g ai/ha): 70; Plant response rating, Foxtail, Giant ([19]; 500 g ai/ha): 90; Plant response rating, Flood, Rice ([9]; 500 g ai/ha): 0; Plant response rating, Barnyardgrass ([20]; 125 g ai/ha): 20; Plant response rating, Barnyardgrass ([20]; 500 g ai/ha): 20; Plant response rating, Ryegrass, Italian ([11]; 500 g ai/ha): 0; Plant response rating, Galium ([12]; 500 g ai/ha): 30; Plant response rating, Barnyardgrass ([13]; 500 g ai/ha): 20; Plant response rating, Kochia ([14]; 500 g ai/ha): 0
CC1(C(=O)Nc2cccc(F)c2F)C(=O)OCC1c1ccc(F)cc1 (racemic) [Compound 22]	0	–	0	0	0	0	–	0	–	0	–	0	–	20	60	–	20	20	90	0	Plant response rating, Corn ([1]; 31 g ai/ha): 0; Plant response rating, Wheat ([5]; 31 g ai/ha): 0; Plant response rating, Blackgrass ([6]; 31 g ai/ha): 0; Plant response rating, Ragweed ([7]; 31 g ai/ha): 0; Plant response rating, Pigweed ([8]; 31 g ai/ha): 0; Plant response rating, Foxtail, Giant ([10]; 31 g ai/ha): 30; Plant response rating, Ryegrass, Italian ([11]; 31 g ai/ha): 20; Plant response rating, Galium ([12]; 31 g ai/ha): 0; Plant response rating, Barnyardgrass ([13]; 31 g ai/ha): 40; Plant response rating, Kochia ([14]; 31 g ai/ha): 0
